Tests used:
HBsAg secretion = assay: Inhibition of HBsAg secretion (ELISA); format: cell-based, HBV; settings: Hepatitis B virus, HepG2.2.15, 240 h, read-out: HbsAg IC50 (nM)
Method: (§1) The chromosomes of HepG2.2.15 cells (SELLS, PNAS, 1987 and SELLS, JV, 1988) integrate the complete HBV genome and stably express viral RNA and viral proteins. HepG2.2.15 cells are able to secrete mature HBV particles and HBsAg into the culture medium. Viral particle DNA and HBsAg secreted by HepG 2.2.15 cells can be quantified by qPCR and ELISA methods, and the effects of the compound on virus replication and HBsAg secretion are thus examined.
(§2) HepG 2.2.15 Cells (8,000 per well) were seeded into 96-well cell culture plates in duplicate and cultured for 3 days until the cells grew to fill in pores. Cells were treated with 4-fold serial diluted compound solution for 10 days, and the compound solution was exchanged once every other day, the final concentration of DMSO in all wells was 0.5% and DMSO was used as a drug-free control. On the eleventh day, the supernatant was collected for quantitative detection of HBsAg.
The level of HBsAg secreted by the cells after treatment with the compound was detected by ELISA. The method used a hepatitis B surface antigen diagnostic kit (Shanghai K ehua Biotechnology Co., Ltd. 510910113). 25 ≈L of the supernatant to be examined (diluted to 75 ≈L in PBS) was added to each well of the ELISA plate, and a kit-positive control and a negative control were set. The ELISA plates were blocked with mounting paper and incubated at 37 eC for 60 minutes. The ELISA plate was took out, and the mounting paper was removed, then 50 ≈L of enzyme conjugate was added into each well. After shaking for 10 seconds, the ELISA plates were blocked with mounting paper and incubated at 37 eC for 30 minutes. The ELISA plate was took out, and the mounting paper was removed, and the ELISA plate was repeated washing five times: liquid in the wells was discard each time; the wells was filled with washing solution, then stood for 60 seconds and spined dry; and liquid residue on blotting paper was patted dry. After the washing was completed, to all wells was immediately added a mixture of freshly prepared developer A and developer B: 100 ≈L per well. After shaking for 10 seconds on oscillator, the ELISA plates were blocked with mounting paper and incubated at 37 eC for 30 minutes. To all wells were added 50 ≈L of stop solution. Data were read at a wavelength of 450 nm on an Envision plate reader. Concentration-HBsAg OD450 value was treated with Graphpad Prism 5 software and the IC50 of inhibition of HBsAg secretion by compounds was calculated by a four-parameter nonlinear regression model.

HBV DNA replication = assay: Inhibition of HBV virus replication (HBV DNA in supernatant, qPCR); format: cell-based; settings: Hepatitis B virus, 240 h; HepG2.2.15 cells, 10 days treatment, supernatant HBV DNA by qPCR
Method: as §1
as §2, with “HBV DNA.” for “HBsAg.”
qPCR method was used for detection of viral genomic DNA, HBV primers were as follows: HBV-For-202, […]; HBV-Rev-315, […].
Using the SY BR Premix Ex Taq II—Takara DRR081S kit, 1 ≈L of the cell culture supernatant was used as a template, a plasmid containing the HBV genome was used for plotting a standard curve, and virus copy number was calculated using the standard curve. Concentration-virus copy number was treated with Graphpad Prism 5 software and the IC50 of inhibition of virus replication by compounds was calculated by a four-parameter nonlinear regression model.

| Structure (SMILES) | IC50 (HBsAg secretion) [nM] | IC50 (HBV DNA replication) [nM] |
| --- | --- | --- |
| COCCCOc1cc2c(cc1C(=O)OC)-c1cc(=O)c(C(=O)O)cn1C(C(C)C)C2 (centres unmarked) [Example 1, 6-isopropyl-10-(methoxycarbonyl)-9-(3-methoxypropoxy)-2-oxo-6,7-dihydro-2H-pyrido[2,1-a]isoquinoline-3-carboxylic Acid] | 2.25 | 6.3 |
| CNC(=O)c1cc2c(cc1OCCCOC)CC(C(C)C)n1cc(C(=O)O)c(=O)cc1-2 (centres unmarked) [Example 5, 6-isopropyl-9-(3-methoxypropoxy)-10-(methylcarbamoyl)-2-oxo-6,7-dihydro-2H-pyrido[2,1-a]isoquinoline-3-carboxylic Acid] | 9.88 | 10.6 |
| COCCCOc1cc2c(cc1C(C)=O)-c1cc(=O)c(C(=O)O)cn1C(C(C)C)C2 (centres unmarked) [Example 6, 10-acetyl-6-isopropyl-9-(3-methoxypropoxy)-2-oxo-6,7-dihydro-2H-pyrido[2,1-a]isoquinoline-3-carboxylic Acid] | 3.63 | 3.02 |
| CCOCc1cc2c(cc1OCCCOC)CC(C(C)C)n1cc(C(=O)O)c(=O)cc1-2 (centres unmarked) [Example 7, 10-(ethoxymethyl)-6-isopropyl-9-(3-methoxypropoxy)-2-oxo-6,7-dihydro-2H-pyrido[2,1-a]isoquinoline-3-carboxylic Acid] | 13.5 | 8.16 |
| COCCCOc1cc2c(cc1-c1csc(N)n1)-c1cc(=O)c(C(=O)O)cn1C(C(C)C)C2 (centres unmarked) [Example 8, 10-(2-aminothiazol-4-yl)-6-isopropyl-9-(3-methoxypropoxy)-2-oxo-6,7-dihydro-2H-pyrido[2,1-a]isoquinoline-3-carboxylic Acid] | 6.28 | 4.46 |
| COCCCOc1cc2c(cc1-c1nccs1)-c1cc(=O)c(C(=O)O)cn1C(C(C)C)C2 (centres unmarked) [Example 9, 6-isopropyl-9-(3-methoxypropoxy)-2-oxo-10-(thiazol-2-yl)-6,7-dihydro-2H-pyrido[2,1-a]isoquinoline-3-carboxylic Acid] | 0.25 | 0.18 |
| COCCCOc1cc2c(cc1-c1ncco1)-c1cc(=O)c(C(=O)O)cn1C(C(C)C)C2 (centres unmarked) [Example 10, 6-isopropyl-9-(3-methoxypropoxy)-10-(oxazol-2-yl)-2-oxo-6,7-dihydro-2H-pyrido[2,1-a]isoquinoline-3-carboxylic Acid] | 10.5 | 7.29 |
| COCCCOc1cc2c(cc1-c1ccco1)-c1cc(=O)c(C(=O)O)cn1C(C(C)C)C2 (centres unmarked) [Example 11, 10-(furan-2-yl)-6-isopropyl-9-(3-methoxypropoxy)-2-oxo-6,7-dihydro-2H-pyrido[2,1-a]isoquinoline-3-carboxylic Acid] | 1.6 | 1.9 |
| COCCCOc1cc2c(cc1-c1cscn1)-c1cc(=O)c(C(=O)O)cn1C(C(C)C)C2 (centres unmarked) [Example 13, 6-isopropyl-9-(3-methoxypropoxy)-2-oxo-10-(thiazol-4-yl)-6,7-dihydro-2H-pyrido[2,1-a]isoquinoline-3-carboxylic Acid] | 1.48 | 0.64 |
| COCCCOc1cc2c(cc1-c1csc(C)n1)-c1cc(=O)c(C(=O)O)cn1C(C(C)C)C2 (centres unmarked) [Example 14, 6-isopropyl-9-(3-methoxypropoxy)-10-(2-methylthiazol-4-yl)-2-oxo-6,7-dihydro-2H-pyrido[2,1-a]isoquinoline-3-carboxylic Acid] | 7.2 | 3.36 |
| COCCCOc1cc2c(cc1-c1cccs1)-c1cc(=O)c(C(=O)O)cn1C(C(C)C)C2 (centres unmarked) [Example 15, 6-isopropyl-9-(3-methoxypropoxy)-2-oxo-10-(thiophen-2-yl)-6,7-dihydro-2H-pyrido[2,1-a]isoquinoline-3-carboxylic Acid] | 0.77 | 0.39 |
| COc1cc2c(cc1-c1ccco1)CC(C(C)C)n1cc(C(=O)O)c(=O)cc1-2 (centres unmarked) [Example 16, 9-(furan-2-yl)-6-isopropyl-10-methoxy-2-oxo-6,7-dihydro-2H-pyrido[2,1-a]isoquinoline-3-carboxylic Acid] | 3.2 | 1.99 |
| COc1cc2c(cc1-c1cccs1)CC(C(C)C)n1cc(C(=O)O)c(=O)cc1-2 (centres unmarked) [Example 17, 6-isopropyl-10-methoxy-2-oxo-9-(thiophen-2-yl)-6,7-dihydro-2H-pyrido[2,1-a]isoquinoline-3-carboxylic Acid] | 2.14 | 3.6 |
| CC(C)C1Cc2cc(OCc3ccccc3)c(-c3nccs3)cc2-c2cc(=O)c(C(=O)O)cn21 (centres unmarked) [Example 18, 9-(benzyloxy)-6-isopropyl-2-oxo-10-(thiazol-2-yl)-6,7-dihydro-2H-pyrido[2,1-a]isoquinoline-3-carboxylic Acid] | 5.53 | 8.09 |
| CCCCCOc1cc2c(cc1-c1nccs1)-c1cc(=O)c(C(=O)O)cn1C(C(C)C)C2 (centres unmarked) [Example 20, 6-isopropyl-2-oxo-9-(pentyloxy)-10-(thiazol-2-yl)-6,7-dihydro-2H-pyrido[2,1-a]isoquinoline-3-carboxylic Acid] | 8.12 | 8.79 |
| CC(C)C1Cc2cc(OCC3CCOCC3)c(-c3nccs3)cc2-c2cc(=O)c(C(=O)O)cn21 (centres unmarked) [Example 21, 6-isopropyl-2-oxo-9-((tetrahydro-2H-pyran-4-yl)methoxy)-10-(thiazol-2-yl)-6,7-dihydro-2H-pyrido[2,1-a]isoquinoline-3-carboxylic Acid] | 0.35 | 0.3 |
| CC(C)C1Cc2cc(OCCC3CC3)c(-c3nccs3)cc2-c2cc(=O)c(C(=O)O)cn21 (centres unmarked) [Example 22, 9-(2-cyclopropylethoxy)-6-isopropyl-2-oxo-10-(thiazol-2-yl)-6,7-dihydro-2H-pyrido[2,1-a]isoquinoline-3-carboxylic Acid] | 0.65 | 0.84 |
| COCCCOc1cc2c(cc1-c1ncc(Br)s1)-c1cc(=O)c(C(=O)O)cn1C(C(C)C)C2 (centres unmarked) [Example 24, 10-(5-bromothiazol-2-yl)-6-isopropyl-9-(3-methoxypropoxy)-2-oxo-6,7-dihydro-2H-pyrido[2,1-a]isoquinoline-3-carboxylic Acid] | 9.99 | 8.63 |
| CC(=O)c1cc2c(cc1N1CCCC1)CC(C(C)C)n1cc(C(=O)O)c(=O)cc1-2 (centres unmarked) [Example 30, 10-acetyl-6-isopropyl-2-oxo-9-(pyrrolidin-1-yl)-6,7-dihydro-2H-pyrido[2,1-a]isoquinoline-3-carboxylic Acid] | 7.83 | 7.68 |
| CC(=O)c1cc2c(cc1-c1ccco1)CC(C(C)C)n1cc(C(=O)O)c(=O)cc1-2 (centres unmarked) [Example 31, 10-acetyl-9-(furan-2-yl)-6-isopropyl-2-oxo-6,7-dihydro-2H-pyrido[2,1-a]isoquinoline-3-carboxylic Acid] | 8.2 | 6.26 |
| COC(=O)c1cc2c(cc1-c1ccco1)CC(C(C)C)n1cc(C(=O)O)c(=O)cc1-2 (centres unmarked) [Example 32, 9-(furan-2-yl)-6-isopropyl-10-(methoxycarbonyl)-2-oxo-6,7-dihydro-2H-pyrido[2,1-a]isoquinoline-3-carboxylic Acid] | 9.62 | 7.57 |
| COC(=O)c1cc2c(cc1N1CC[C@H](OC(C)=O)C1)CC(C(C)C)n1cc(C(=O)O)c(=O)cc1-2 (stereo partly drawn) [Example 47, 9-((S)-3-acetoxypyrrolidin-1-yl)-6-isopropyl-10-(methoxycarbonyl)-2-oxo-6,7-dihydro-2H-pyrido[2,1-a]isoquinoline-3-carboxylic Acid] |  | 6.35 |
| COCCCOc1cc2c(cc1C(=O)CCC(F)(F)F)-c1cc(=O)c(C(=O)O)cn1C(C(C)C)C2 (centres unmarked) [Example 53, 6-isopropyl-9-(3-methoxypropoxy)-2-oxo-10-(4,4,4-trifluorobutanoyl)-6,7-dihydro-2H-pyrido[2,1-a]isoquinoline-3-carboxylic Acid] |  | 7.99 |
